According to ChEMBL document CHEMBL6078667, “Synthesis, Biological Evaluation, and Mechanistic Insights of Rubrolide Analogues as Antitumor Agents” (J Nat Prod, 2024):
The source made the active and inactive calls. The calls are words filed in the database; no cut-off is given here.

How the values were obtained:
[1] = system: HeLa; experiment: Cytotoxicity against human HeLa cells assessed as inhibition of cell growth at 10 uM measured after 72 hrs by MTT assay relative to control; type: functional
[2] = system: MKN-45; experiment: Cytotoxicity against human MKN-45 cells assessed as inhibition of cell growth at 10 uM measured after 72 hrs by MTT assay relative to control; type: functional
[3] = system: U-87 MG; experiment: Cytotoxicity against human U-87 MG cells assessed as inhibition of cell growth incubated for 72 hrs by MTT assay; type: functional, cell-based, U-87MG ATCC
[4] = system: HeLa; experiment: Cytotoxicity against human HeLa cells assessed as inhibition of cell growth incubated for 72 hrs by MTT assay; type: functional, cell-based
[5] = system: HeLa; experiment: Antitumor activity against human HeLa cells xenografted in female BALB/c nude mouse assessed as reduction in tumor cell weight at 20 mg/kg, ip administered as liposome formulation once daily for 13 days relative to control; type: functional; parameters: scale not given: the % may be the effect or the level left; conditions: time 13 day
[6] = system: HCT-116; experiment: Cytotoxicity against human HCT-116 cells assessed as inhibition of cell growth at 10 uM measured after 72 hrs by MTT assay relative to control; type: functional
[7] = system: HCT-116; experiment: Induction of ROS production in human HCT-116 cells assessed as fold change at 0.2 to 0.4 uM incubated for 24 hrs by DCFH-DA probe based flow cytometric analysis; type: functional; conditions: dose 0.2-0.4 µM
[8] = system: HeLa; experiment: Antitumor activity against human HeLa cells xenografted in female BALB/c nude mouse assessed as reduction in tumor cell volume at 20 mg/kg, ip administered as liposome formulation once daily for 13 days relative to control; type: functional; parameters: scale not given: the % may be the effect or the level left; conditions: time 13 day
[9] = system: HeLa; experiment: Induction of apoptosis in human HeLa cells assessed as necrotic cells at 0.2 uM incubated for 24 hrs by Annexin V-FITC/PI staining based flow cytometric analysis (reference value: 0.44 %); type: functional
[10] = Drug localization in human HCT-116 cell mitochondria incubated for 8 hrs by Mito-tracker green dye based fluorescence microscopic analysis; type: ADME; conditions: hct-116, 8 h
[11] = system: HCT-116; experiment: Upregulation of CHOP expression in human HCT-116 cells at 0.2 to 0.4 uM measured after 48 hrs by Western blot analysis; type: functional, cell-based; conditions: dose 0.2-0.4 µM
[12] = system: HeLa; experiment: Upregulation of CHOP expression in human HeLa cells at 0.2 to 0.4 uM measured after 48 hrs by Western blot analysis; type: functional, cell-based; conditions: dose 0.2-0.4 µM
[13] = system: HCT-116; experiment: Cell cycle arrest in human HCT-116 cells assessed as increase in cyclin B1 expression at 0.2 to 0.4 uM incubated for 24 hrs by Western blot analysis; type: functional, cell-based; conditions: dose 0.2-0.4 µM
[14] = system: HeLa; experiment: Cell cycle arrest in human HeLa cells assessed as accumulation of cells at G2/M phase at 0.2 uM measured after 24 hrs by PI staining based flow cytometric analysis (reference value: 22.8 %); type: functional
[15] = system: HeLa; experiment: Induction of apoptosis in human HeLa cells assessed as late apoptotic cells at 0.2 uM incubated for 24 hrs by Annexin V-FITC/PI staining based flow cytometric analysis (reference value: 6.58 %); type: functional
[16] = system: MKN-45; experiment: Cytotoxicity against human MKN-45 cells assessed as inhibition of cell growth incubated for 72 hrs by MTT assay; type: functional, cell-based; conditions: MKN-45, 72 h
[17] = system: HCT-116; experiment: Cell cycle arrest in human HCT-116 cells assessed as accumulation of cells at G0/G1 phase at 0.2 uM measured after 24 hrs by PI staining based flow cytometric analysis (reference value: 51.3 %); type: functional
[18] = Toxicity in female BALB/c nude mouse xenografted with human HeLa cells assessed as animal survival at 20 mg/kg, ip administered as liposome formulation once daily for 13 days; type: organism-based; conditions: in vivo, 312 h, time 13 day
[19] = system: U-87 MG; experiment: Cytotoxicity against human U-87 MG cells assessed as inhibition of cell growth at 10 uM measured after 72 hrs by MTT assay relative to control; type: functional, U-87MG ATCC
[20] = Cytotoxicity against HHL-5 cells assessed as inhibition of cell growth incubated for 72 hrs by MTT assay; type: toxicity, cell-based; conditions: human
[21] = system: HeLa; experiment: Induction of apoptosis in human HeLa cells assessed as late apoptotic cells at 0.4 uM incubated for 24 hrs by Annexin V-FITC/PI staining based flow cytometric analysis (reference value: 6.58 %); type: functional
[22] = system: HCT-116; experiment: Induction of apoptosis in human HCT-116 cells assessed as viable cells at 0.4 uM incubated for 24 hrs by Annexin V-FITC/PI staining based analysis (reference value: 92.4 %); type: functional; conditions: read-out: Activity
[23] = system: MCF7; experiment: Cytotoxicity against human MCF7 cells assessed as survival rate at 10 uM measured after 72 hrs by MTT assay relative to control; type: functional; conditions: read-out: Survival
[24] = system: HCT-116; experiment: Induction of apoptosis in human HCT-116 cells assessed as late apoptotic cells at 0.4 uM incubated for 24 hrs by Annexin V-FITC/PI staining based analysis (reference value: 0.095 %); type: functional
[25] = system: U-87 MG; experiment: Cytotoxicity against human U-87 MG cells assessed as survival rate at 10 uM measured after 72 hrs by MTT assay relative to control; type: functional, U-87MG ATCC; conditions: read-out: Survival
[26] = system: HCT-116; experiment: Cell cycle arrest in human HCT-116 cells assessed as accumulation of cells at G0/G1 phase at 0.4 uM measured after 24 hrs by PI staining based flow cytometric analysis (reference value: 51.3 %); type: functional
[27] = system: HeLa; experiment: Induction of apoptosis in human HeLa cells assessed as early apoptotic cells at 0.4 uM incubated for 24 hrs by Annexin V-FITC/PI staining based flow cytometric analysis (reference value: 2.35 %); type: functional
[28] = system: HeLa; experiment: Induction of ROS production in human HeLa cells assessed as fold change at 0.2 to 0.4 uM incubated for 24 hrs by DCFH-DA probe based flow cytometric analysis; type: functional; conditions: dose 0.2-0.4 µM
[29] = system: HCT-116; experiment: Induction of apoptosis in human HCT-116 cells assessed as necrotic cells at 0.4 uM incubated for 24 hrs by Annexin V-FITC/PI staining based analysis (reference value: 0.083 %); type: functional
[30] = system: HeLa; experiment: Upregulation of phosphorylated eIF2alpha expression in human HeLa cells at 0.2 to 0.4 uM measured after 48 hrs by Western blot analysis; type: functional, cell-based; conditions: dose 0.2-0.4 µM
[31] = system: HeLa; experiment: Cell cycle arrest in human HeLa cells assessed as accumulation of cells at G2/M phase at 0.4 uM measured after 24 hrs by PI staining based flow cytometric analysis (reference value: 22.8 %); type: functional
[32] = Selectivity index, ratio of IC50 for HHL-5 cells to IC50 for human HeLa cells; type: toxicity; conditions: HHL-5 cells and HeLa cells, pooled result: one value given for 6 cell lines, strains, targets or settings, read-out: Ratio IC50
[33] = system: HeLa; experiment: Antitumor activity against human HeLa cells xenografted in female BALB/c nude mouse assessed as reduction in tumor cell growth administered intraperitoneally as liposome formulation once daily for 13 days; type: functional; conditions: dose 5-20 mg/kg, route ip, time 13.0 day
[34] = system: HCT-116; experiment: Induction of apoptosis in human HCT-116 cells assessed as late apoptotic cells at 0.2 uM incubated for 24 hrs by Annexin V-FITC/PI staining based analysis (reference value: 0.095 %); type: functional
[35] = system: HCT-116; experiment: Induction of apoptosis in human HCT-116 cells assessed as early apoptotic cells at 0.2 uM incubated for 24 hrs by Annexin V-FITC/PI staining based analysis (reference value: 7.40 %); type: functional
[36] = system: HCT-116; experiment: Induction of apoptosis in human HCT-116 cells assessed as early apoptotic cells at 0.4 uM incubated for 24 hrs by Annexin V-FITC/PI staining based analysis (reference value: 7.40 %); type: functional

SMILES: COc1ccc(C2=CC(=O)O/C2=C\c2ccc(O)cc2)cc1
- inhibition at 10 µM [1]: > 50%
- inhibition at 10 µM [2]: > 50%
- IC50 [3]: 2400 nM
- IC50 [4]: 200 nM
- Activity [5]: 50%
- inhibition at 10 µM [6]: > 50%
- fold change (FC) [7]: >4
- Activity [8]: >60%
- Activity [9]: 0.44%
- Drug uptake [10]: Not_active
- Activity [11]: Active; Compound Impacts Endoplasmic Reticulum Stress Related Perk-Eif2Alpha-Chop Signalling Pathway
- Activity [12]: Active; Compound Impacts Endoplasmic Reticulum Stress Related Perk-Eif2Alpha-Chop Signalling Pathway
- Activity [13]: Active
- Activity [14]: 58.6%
- Activity [15]: 11.5%
- IC50 [16]: 200 nM
- Activity [17]: 38.8%
- Activity [18]: Non-toxic
- inhibition at 10 µM [19]: > 50%
- IC50 at 72 h [20]: 6.3 µM
- Activity [21]: 40.6%
- viability at 0.4 µM [22]: 69.6%
- viability at 10 µM [23]: 24.8%
- Activity [24]: 14.7%
- viability at 10 µM [25]: 12.4%
- Activity [26]: 23.2%
- Activity [27]: 10.5%
- fold change (FC) [28]: >4
- Activity [29]: 7.38%
- Activity [30]: Active; Compound Impacts Endoplasmic Reticulum Stress Related Perk-Eif2Alpha-Chop Signalling Pathway
- Activity [31]: 71.1%
- selectivity ratio [32]: 2.6
- Activity [33]: Dose-dependent-effect
- Activity [34]: 7.71%
- Activity [35]: 3.69%
- Activity [36]: 8.33%
